We go through five compounds from publication PMC7352952, “Peptides Derived from (RRWQWRMKKLG)2-K-Ahx Induce Selective Cellular Death in Breast Cancer Cell Lines through Apoptotic Pathway” (International Journal of Molecular Sciences, 2020).

≈ marks a conversion by molar mass, not a printed value. Bridge positions count the residues as written; N and C are the ends. Square brackets hold non-standard residues; d marks the D form. Peptide text beside a SMILES is read from it. I, II: the chains in the order shown. Ahx = NCCCCCC(=O)O Bounds are passed on as bounds.

For one data set, the system named is MCF-7 cell line. The experiment in a line: MTT viability test, MCF-7 cells. The data set is classed as cell-based, human. The following applies: for cytotoxic effect against MCF-7 compared with ^26[M] (in words) / IC50: 24 h; for IC50, cytotoxic effect, MCF-7: 24 h at 37 °C, three independent experiments with n = 4 each; for IC50: human, pH 7.4. On the procedure:
(§1) For all cell lines, the medium used was Dulbecco’s Modified Eagle’s Medium (DMEM)/Nutrient Mixture F-12 Ham. For the HTB-132, MCF-7, and MCF-12A lines, the medium was supplemented with 10% fetal bovine serum (SFB), and 1.5 g/L NaHCO3 and NaOH were added up to pH 7.4, amphotericin (200 μg/mL), and 1% penicillin and streptomycin. For the primary culture cells of bovine mammary epithelium and fibroblasts, in addition to the above, hydrocortisone (250 μg/mL) was added. All media were filtered through a 0.22 μm membrane.
(§2) Briefly, the cells were seeded with a complete medium in 96-well plates at a rate of 10,000 cells and 100 µL per well, and adhesion to the plates was allowed for 24 h. Subsequently, the complete medium was removed and an incomplete medium was added for synchronization for another 24 h. The cells were then incubated at 37 °C for 2, 24, or 48 h with 100 μL of peptide at the concentrations to be evaluated (200, 100, 50, 25, 12.5, 6.25 and 3.1 μg/mL). Next, the peptide was removed from the box, and 100 µL of incomplete medium with 10% 3-4,5-dimethylthiazol-2-yl-2,5-diphenyltetrazole (MTT) bromide was added and incubated for 4 h. The medium was replaced with 100 μL of isopropanol (IPA), and after 30 min of incubation at 37 °C, the absorbance was measured at 575 nm. As a negative control, an incomplete culture medium with 10% MTT was used, and as a positive control, cells without MTT treatment were used.
For orientation: Formazan colour is commonly taken as a measure of viable cells.

A further data set relates to HTB-132 cell line. The experiment in a line: MTT viability test, HTB-132 cells. Format: cell-based, human. The following applies: for cytotoxic effect against HTB-132 compared with ^26[M] (in words) / IC50, cytotoxic effect, HTB-132: MTT; for cytotoxic effect against HTB-132 compared with ^26[M] (in words) / IC50: 24 h; for IC50, cytotoxic effect, HTB-132: 24 h at 37 °C, mean of n = 3; for IC50: human, pH 7.4. As for the experimental part:
as §1, §2

In another data set the test system is MCF-7 cells. Kind of data set: Cell morphology and size by inverted microscope. Format: cell-based, human. Conditions: MCF-7, 90 min of treatment, 37 °C; from 100.27 μm before; average of 100 measurements; Figure 3: 100 µg/mL. As for the experimental part:
Cell morphology was monitored before and after treatment with ^26[L] or ^26[F] at different times, using an inverted microscope coupled to an AxioCam ICc1 camera (Figure 3). The untreated cells had normal morphologic characteristics as polygonal, flattened, and elongated cells with long and defined axons (data not shown). After 5 min of treatment with the peptide, most cells retained their morphology; however, some began to appear rounded and shrunken. After 90 min, the cells treated with the peptide (^26[L] or ^26[F]) took on a rounded shape, and shrinkage was observed, going from an average size of 100.27 μm to 39.38 µm. […] At 24 h of treatment, the appearance of small vacuoles was observed, presumably associated with late apoptosis events. Finally, it was observed that the effect of the peptide was sustained up to 48 h since at that time no recovery of cell morphology was observed.
Figure 3 Micrography of MCF-7 cells treated with peptide ^26[F] at 100 µg/mL. The cells were incubated in the absence (A) or the presence of the peptide at (B) 5 min, (C) 90 min, (D) 240 min, (E) 24 h, and (F) 48 h at 37 °C. The cell size was determined as an average of 100 measurements, using an AxioCam ICc1 camera.

The next data set relates to MCF-12 cell line. The data set is classed as cell-based, human. On the procedure: as §1, §2
Data set [1] deals with MDA-MB 231 breast cancer cells. The following applies: cited from earlier work. An excerpt:
(§3) Breast cancer is the most common cancer type diagnosed worldwide. There are 2.1 million cases annually, and 627,000 deaths of women due to this disease were reported in 2018 [5]. […] However, when this motif was modified or included in longer sequences, the cytotoxic effect against human cancer cell lines increased. In ...

Data set [2] relates to MDA-MB 468 breast cancer cells. The following applies: cited from earlier work.
Description: as §3

On to `CC(C)C[C@H](NC(=O)[C@H](CCCCN)NC(=O)[C@H](CCCCN)NC(=O)[C@H](C)NC(=O)[C@H](CCCNC(=N)N)NC(=O)[C@H](Cc1c[nH]c2ccccc12)NC(=O)[C@H](CCC(N)=O)NC(=O)[C@H](Cc1c[nH]c2ccccc12)NC(=O)[C@H](CCCNC(=N)N)NC(=O)[C@@H](N)CCCNC(=N)N)C(=O)NCC(=O)NCCCC[C@H](NC(=O)CNC(=O)[C@H](CC(C)C)NC(=O)[C@H](CCCCN)NC(=O)[C@H](CCCCN)NC(=O)[C@H](C)NC(=O)[C@H](CCCNC(=N)N)NC(=O)[C@H](Cc1c[nH]c2ccccc12)NC(=O)[C@H](CCC(N)=O)NC(=O)[C@H](Cc1c[nH]c2ccccc12)NC(=O)[C@H](CCCNC(=N)N)NC(=O)[C@@H](N)CCCNC(=N)N)C(=O)NCCCCCC(N)=O` [^26[A], (RRWQWRAKKLG)2-K-Ahx] (I: H-RRWQWRAKKLGK[Ahx]-NH2 / II: H-RRWQWRAKKLG; amide I:12-II:C), for which, in the data set with MCF-7 cell line (MTT), the “cytotoxic effect against MCF-7 compared with ^26[M] (in words)” value is “greater cytotoxic effect against MCF-7 cells than the peptide” and the “IC50, cytotoxic effect, MCF-7” value was above 200 µg/mL. The compound also came in with an IC50 with MCF-7 cell line above 60 µM.
In the case of `CC(C)C[C@H](NC(=O)[C@H](CCCCN)NC(=O)[C@H](CCCCN)NC(=O)[C@H](CC(=O)O)NC(=O)[C@H](CCCNC(=N)N)NC(=O)[C@H](Cc1c[nH]c2ccccc12)NC(=O)[C@H](CCC(N)=O)NC(=O)[C@H](Cc1c[nH]c2ccccc12)NC(=O)[C@H](CCCNC(=N)N)NC(=O)[C@@H](N)CCCNC(=N)N)C(=O)NCC(=O)NCCCC[C@H](NC(=O)CNC(=O)[C@H](CC(C)C)NC(=O)[C@H](CCCCN)NC(=O)[C@H](CCCCN)NC(=O)[C@H](CC(=O)O)NC(=O)[C@H](CCCNC(=N)N)NC(=O)[C@H](Cc1c[nH]c2ccccc12)NC(=O)[C@H](CCC(N)=O)NC(=O)[C@H](Cc1c[nH]c2ccccc12)NC(=O)[C@H](CCCNC(=N)N)NC(=O)[C@@H](N)CCCNC(=N)N)C(=O)NCCCCCC(N)=O` [^26[D], (RRWQWRDKKLG)2-K-Ahx] (I: H-RRWQWRDKKLGK[Ahx]-NH2 / II: H-RRWQWRDKKLG; amide I:12-II:C), in the data set with HTB-132 cell line, the “cytotoxic effect against HTB-132 compared with ^26[M] (in words)” value is on record as “lower cytotoxic effect against HTB-132 cells than the original dimeric peptide”; the “IC50, cytotoxic effect, HTB-132” value is above 200 µg/mL; the IC50 is above 60 µM.
On to `CC(C)C[C@H](NC(=O)[C@H](CCCCN)NC(=O)[C@H](CCCCN)NC(=O)[C@H](CCCCN)NC(=O)[C@H](CCCNC(=N)N)NC(=O)[C@H](Cc1c[nH]c2ccccc12)NC(=O)[C@H](CCC(N)=O)NC(=O)[C@H](Cc1c[nH]c2ccccc12)NC(=O)[C@H](CCCNC(=N)N)NC(=O)[C@@H](N)CCCNC(=N)N)C(=O)NCC(=O)NCCCC[C@H](NC(=O)CNC(=O)[C@H](CC(C)C)NC(=O)[C@H](CCCCN)NC(=O)[C@H](CCCCN)NC(=O)[C@H](CCCCN)NC(=O)[C@H](CCCNC(=N)N)NC(=O)[C@H](Cc1c[nH]c2ccccc12)NC(=O)[C@H](CCC(N)=O)NC(=O)[C@H](Cc1c[nH]c2ccccc12)NC(=O)[C@H](CCCNC(=N)N)NC(=O)[C@@H](N)CCCNC(=N)N)C(=O)NCCCCCC(N)=O` [^26[K], (RRWQWRKKKLG)2-K-Ahx] (I: H-RRWQWRKKKLGK[Ahx]-NH2 / II: H-RRWQWRKKKLG; amide I:12-II:C), for which, in the data set with HTB-132 cell line, the “cytotoxic effect against HTB-132 compared with ^26[M] (in words)” value is recorded as “lower cytotoxic effect against HTB-132 cells than the original dimeric peptide”; the “IC50, cytotoxic effect, HTB-132” value is listed as above 200 µg/mL; the IC50 is above 60 µM.
For `CC(C)C[C@H](NC(=O)[C@H](CCCCN)NC(=O)[C@H](CCCCN)NC(=O)[C@H](CC(C)C)NC(=O)[C@H](CCCNC(=N)N)NC(=O)[C@H](Cc1c[nH]c2ccccc12)NC(=O)[C@H](CCC(N)=O)NC(=O)[C@H](Cc1c[nH]c2ccccc12)NC(=O)[C@H](CCCNC(=N)N)NC(=O)[C@@H](N)CCCNC(=N)N)C(=O)NCC(=O)NCCCC[C@H](NC(=O)CNC(=O)[C@H](CC(C)C)NC(=O)[C@H](CCCCN)NC(=O)[C@H](CCCCN)NC(=O)[C@H](CC(C)C)NC(=O)[C@H](CCCNC(=N)N)NC(=O)[C@H](Cc1c[nH]c2ccccc12)NC(=O)[C@H](CCC(N)=O)NC(=O)[C@H](Cc1c[nH]c2ccccc12)NC(=O)[C@H](CCCNC(=N)N)NC(=O)[C@@H](N)CCCNC(=N)N)C(=O)NCCCCCC(N)=O` [^26[L], (RRWQWRLKKLG)2-K-Ahx] (I: H-RRWQWRLKKLGK[Ahx]-NH2 / II: H-RRWQWRLKKLG; amide I:12-II:C), the “average cell size after treatment” value in the data set with MCF-7 cells was determined as 39.38 µm. Further, in the data set on MCF-7 cell line (MTT), the “cytotoxic effect against MCF-7 compared with ^26[M] (in words)” value was “greater cytotoxic effect against MCF-7 cells than the peptide” and the “IC50, cytotoxic effect, MCF-7” value came to 66 µg/mL (≈ 20.1 µM). In addition, in the data set on MCF-7 cell line (MTT, peptide 200 µg/mL, regardless of treatment time (2, 24, 48 h)), the “maximum cytotoxic effect, MCF-7” value is around 85%. For the same compound, in the data set on MCF-7 cell line, 20 µM corresponded to half-maximal inhibition (IC50). For the same compound, in the data set on MCF-12 cell line, the “cytotoxic effect against MCF-12 compared with HTB-132 and MCF-7 (in words)” value is on record as “lower cytotoxic effect against MCF-12 cells than against breast cancer cell lines”. Further, the “IC50, non-tumorigenic cell line MCF-12” value in the data set with MCF-12 cell line (24 h) is listed as above 100 µg/mL. In the data set on HTB-132 cell line, the “cytotoxic effect against HTB-132 compared with ^26[M] (in words)” value is “greater cytotoxic effect against cancer cells than the original peptide”; the “IC50, cytotoxic effect, HTB-132” value was determined as 32 µg/mL (≈ 9.77 µM); the IC50 was determined as 10 µM.
As to “RRWQWR [minimal motif peptide of LfcinB, reference compound]”, the “cytotoxic effect against MDA-MB-231 (in words)” value in data set [1] is on record as “low cytotoxic effect”. Besides, the “cytotoxic effect against MDA-MB-468 (in words)” value in data set [2] was “low cytotoxic effect”.

For orientation: IC50 means the midpoint of a concentration-inhibition curve. Lower therefore signals inhibition by little substance.
